Data on four molecules can be found in article PMC8434392, “Harnessing the Anti-Nociceptive Potential of NK2 and NK3 Ligands in the Design of New Multifunctional μ/δ-Opioid Agonist–Neurokinin Antagonist Peptidomimetics” (Molecules, 2021).

One experiment has as its target hNK3. Set-up: method as in PMID 17728699. The following applies: Figure 1A; cited from earlier work.
For experiment [1], the system named is NK3 receptor. Further details: method as in PMID 17728699. The following applies: Figure 1A; cited from earlier work.
In experiment [2] the test system is NK3 receptor. Set-up: method as in PMID 17728699. Conditions: Figure 1A; cited from earlier work. The source holds these as a separate data set.
The target in the next experiment is T1, human recombinant MOR (Homo sapiens, UniProt P35372).
T1 construct: expressed in transfected cells; host or cells: CHO cells (gift from Prof. Girolamo Calo', Ferrara University)
Briefly: Calcium mobilization assay, CHO MOR cells with Gαqi5. In kind it is cell-based. Conditions: intrinsic activity: Emax of ligand / Emax of dermorphin.

For the next experiment, the target named is T2, human recombinant DOR (Homo sapiens, UniProt P41143).
T2 construct: expressed in transfected cells; host or cells: CHO cells (gift from Prof. Girolamo Calo', Ferrara University)
Further details: method as in PMID 23007594. Conditions: data from reported literature ref 30, cited from earlier work; for DOR α ± SEM: intrinsic activity.

For the next experiment, the target named is T3, human recombinant KOR (Homo sapiens, UniProt P41145).
T3 construct: expressed in transfected cells; host or cells: CHO cells (gift from Prof. Girolamo Calo', Ferrara University)
The experiment is described as follows: Calcium mobilization assay, CHO KOR cells with Gαqi5. In kind it is cell-based.

For experiment [3], the target named is hMOR. Set-up: method as in PMID 15094830, PMID 32365707. The following applies: Figure 1B; read-out: Ki (CHO-hMOR); cited from earlier work.
Experiment [4] has as its system hMOR. Further details: method as in PMID 15094830, PMID 32365707. The following applies: Figure 1B; read-out: EC50 (CHO-hMOR); cited from earlier work.

Marks after values point to notes of the source that are not given here.

T2 sequence (P41143 whole entry): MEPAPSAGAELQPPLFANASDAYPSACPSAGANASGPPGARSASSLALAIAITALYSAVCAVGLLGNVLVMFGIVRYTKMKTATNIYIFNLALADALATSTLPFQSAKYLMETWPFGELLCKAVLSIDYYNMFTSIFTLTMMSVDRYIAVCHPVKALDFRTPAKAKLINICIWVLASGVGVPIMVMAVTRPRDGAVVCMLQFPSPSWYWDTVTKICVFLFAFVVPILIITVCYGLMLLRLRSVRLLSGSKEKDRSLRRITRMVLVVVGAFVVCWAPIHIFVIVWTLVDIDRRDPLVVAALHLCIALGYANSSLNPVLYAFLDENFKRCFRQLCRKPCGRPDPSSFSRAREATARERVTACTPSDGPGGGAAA
T3 sequence (P41145 whole entry): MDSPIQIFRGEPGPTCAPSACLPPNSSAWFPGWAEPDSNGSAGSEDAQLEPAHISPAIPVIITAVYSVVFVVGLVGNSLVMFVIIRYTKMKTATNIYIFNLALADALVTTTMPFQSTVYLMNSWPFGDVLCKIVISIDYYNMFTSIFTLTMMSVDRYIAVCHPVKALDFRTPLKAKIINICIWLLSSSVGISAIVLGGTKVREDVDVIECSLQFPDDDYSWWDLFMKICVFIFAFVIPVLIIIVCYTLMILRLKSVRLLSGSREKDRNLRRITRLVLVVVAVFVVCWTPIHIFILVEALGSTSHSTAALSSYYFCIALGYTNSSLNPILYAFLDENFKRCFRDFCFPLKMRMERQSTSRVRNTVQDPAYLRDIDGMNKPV
T1 sequence (P35372 whole entry): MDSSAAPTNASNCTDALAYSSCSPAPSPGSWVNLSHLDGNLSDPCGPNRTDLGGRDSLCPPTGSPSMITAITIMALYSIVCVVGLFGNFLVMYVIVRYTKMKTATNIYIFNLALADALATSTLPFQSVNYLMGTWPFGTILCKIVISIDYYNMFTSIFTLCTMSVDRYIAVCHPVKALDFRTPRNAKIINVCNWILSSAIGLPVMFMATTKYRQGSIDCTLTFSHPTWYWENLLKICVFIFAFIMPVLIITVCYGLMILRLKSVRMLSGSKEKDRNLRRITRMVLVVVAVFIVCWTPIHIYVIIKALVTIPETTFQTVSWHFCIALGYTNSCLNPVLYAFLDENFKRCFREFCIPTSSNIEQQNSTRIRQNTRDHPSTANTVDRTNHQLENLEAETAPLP

With `CC[C@H](NC(=O)c1c(O)c(-c2ccccc2)nc2ccccc12)c1ccccc1` [Talnetant], the Ki on hNK3 was 2000 pM. The “pA2 (Ca2+ mobilisation)” value with NK3 receptor [1] is recorded as 8.1. For the same molecule, the “pA2 (IP accumulation)” value in the experiment on NK3 receptor [2] was 7.7.
For the molecule `C[C@@H](NC(=O)[C@@H](N)Cc1ccc(O)cc1)C(=O)N[C@@H](Cc1ccccc1)C(=O)NCC(=O)N[C@@H](Cc1ccc(O)cc1)C(=O)N1CCC[C@H]1C(=O)N[C@@H](CO)C(N)=O` [dermorphin, reference compound], at human recombinant MOR, the “MOR α ± SEM” value worked out at 1.00. The “DOR EC50 ± SEM (nM)” value at human recombinant DOR (calcium mobilization, chimeric G protein) was “Inactive ^a”. For the same molecule, at human recombinant DOR, the “DOR α ± SEM” value was “Inactive ^a”. Also, the “KOR EC50 ± SEM (nM)” value at human recombinant KOR (calcium mobilization, CHO KOR Gαqi5, maximum tested concentration 10 µM, crc = concentration-response curve) was “inactive”. Also, the “KOR α ± SEM” value on human recombinant KOR (intrinsic activity: Emax of ligand / Emax of dynorphin A) was “inactive”.
On to `Cc1cc(O)cc(C)c1C[C@H](N)C(=O)N[C@H](CCCNC(=N)N)C(=O)N[C@@H](Cc1ccccc1)C(=O)N[C@@H](CCCCN)C(N)=O` [Dmt-DALDA, H-Dmt-D-Arg-Phe-Lys-NH2], for which, at hMOR [3], the Ki was 230 pM. Further, the EC50 in the experiment on hMOR [4] was 510 pM.
Regarding `CC[C@H](C)[C@H](NC(=O)[C@H](CCCNC(=N)N)NC(=O)[C@H](CCCNC(=N)N)NC(=O)[C@H](CC(C)C)NC(=O)[C@H](Cc1ccccc1)NC(=O)CNC(=O)CNC(=O)[C@@H](N)Cc1ccc(O)cc1)C(=O)N[C@@H](CCCNC(=N)N)C(=O)N1CCC[C@H]1C(=O)N[C@@H](CCCCN)C(=O)N[C@@H](CC(C)C)C(=O)N[C@@H](CCCCN)C(=O)N[C@@H](Cc1c[nH]c2ccccc12)C(=O)N[C@@H](CC(=O)O)C(=O)N[C@@H](CC(N)=O)C(=O)N[C@@H](CCC(N)=O)C(=O)O` [dynorphin A], the “DOR α ± SEM” value on human recombinant DOR is listed as 0.99 ± 0.04 ^a.

As a reminder, the Ki is the dissociation constant of the complex between target and ligand, obtained from inhibition or displacement. Broadly, the EC50 is the concentration giving half of the maximal effect.
